Assay results from US20250179061A1 (SIRONAX LTD., priority 2022, published 2025).
Counter-ions that a name gives are not always drawn. Like-named read-outs stand apart in the source and are kept apart here.

System: HT-29 cells
Experiment: HT-29 necroptosis cell viability assay (TNF-α/SMAC mimetic/zVAD-FMK, CellTiter-Glo)
Format: cell-based
Settings: Homo sapiens
Method in brief: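 Necroptosis was triggered by TNF-α (10 ng/ml), SMAC mimetic (6 μM) and zVAD-FMK (10 μM) in serum-free medium during 20 h compound exposure (10 concentrations, threefold steps) of HT-29 cells. IC50 from duplicate dose-responses uses CellTiter-Glo ATP luminescence as viability read-out.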

[1] = HT-29, HT-29 necroptosis cell viability, IC50 class symbols, read-out: Activity
[2] = HT-29, HT-29 necroptosis cell viability assay, class symbols for IC50, read-out: Activity
[3] = HT-29, HT-29 cells, necroptosis induced by TNF-α/SMAC mimetic/zVAD-FMK, CellTiter-Glo, read-out: Activity (IC50 class)
[4] = HT-29 cells stimulated with TNF-α (10 ng/ml), SMAC mimetic (6 μM) and zVAD-FMK (10 μM), 20 hours, CellTiter-Glo ATP luminescence, geometric mean IC50 from 10 points, read-out: Activity

Cc1nc(N2CC(C)(O)C2)sc1Oc1ccc(-n2ncn(Cc3c(F)cccc3F)c2=O)cc1F [Example 299, 4-(2,6-difluorobenzyl)-2-(3-fluoro-4-((2-(3-hydroxy-3-methylazetidin-1-yl)-4-methylthiazol-5-yl)oxy)phenyl)-2,4-dihydro-3H-1,2,4-triazol-3-one] was tested, and the IC50 [1] was < 100 nM.

Cc1c(I)ncn1Cc1ccc(-n2ncn(Cc3c(F)cccc3F)c2=O)cc1 [Example 539, 4-(2,6-difluorobenzyl)-2-(4-((4-iodo-5-methyl-1H-imidazol-1-yl)methyl)phenyl)-2,4-dihydro-3H-1,2,4-triazol-3-one] was tested, and the IC50 [2] was < 100 nM.

Cc1nc(Oc2cccnc2)sc1-n1ncn(Cc2c(F)cccc2F)c1=O [Example 166, 4-(2,6-difluorobenzyl)-2-(4-methyl-2-(pyridin-3-yloxy)thiazol-5-yl)-2,4-dihydro-3H-1,2,4-triazol-3-one] gave an IC50 [2] of 100 to 1000 nM.

In the case of Cc1nc(C#N)cn1Cc1ccc(-n2ncn(Cc3c(F)cccc3F)c2=O)cc1F [Example 125, 1-(4-(4-(2,6-difluorobenzyl)-5-oxo-4,5-dihydro-1H-1,2,4-triazol-1-yl)-2-fluorobenzyl)-2-methyl-1H-imidazole-4-carbonitrile], the IC50 [2] is reported as < 100 nM.

In the case of O=c1n(Cc2c(F)cccc2F)cnn1-c1ccc(Oc2ccnc(N3CCC4(CCOCC4)C3)c2)cc1 [Example 340, 2-(4-((2-(8-oxa-2-azaspiro[4.5]decan-2-yl)pyridin-4-yl)oxy)phenyl)-4-(2,6-difluorobenzyl)-2,4-dihydro-3H-1,2,4-triazol-3-one], the IC50 [1] is reported as < 100 nM.

CCOC(=O)c1cc(C)n(Cc2ccc(-n3ncn(Cc4c(F)cccc4F)c3=O)cc2F)c1 [Example 204, ethyl 1-(4-(4-(2,6-difluorobenzyl)-5-oxo-4,5-dihydro-1H-1,2,4-triazol-1-yl)-2-fluorobenzyl)-5-methyl-1H-pyrrole-3-carboxylate] was tested, and the IC50 [2] was < 100 nM.

With N#Cc1cccn(Cc2ccc(-n3ncn(Cc4c(F)cccc4F)c3=O)cc2)c1=O [Example 194, 1-(4-(4-(2,6-difluorobenzyl)-5-oxo-4,5-dihydro-1H-1,2,4-triazol-1-yl)benzyl)-2-oxo-1,2-dihydropyridine-3-carbonitrile] the IC50 [2] was 1000 to 10000 nM.

With Nc1cccc(Cl)c1Oc1ccc(-n2ncn(Cc3c(F)cccc3F)c2=O)cc1 [Example 440, 2-(4-(2-amino-6-chlorophenoxy)phenyl)-4-(2,6-difluorobenzyl)-2,4-dihydro-3H-1,2,4-triazol-3-one] the IC50 [1] was < 100 nM.

With Cc1ncsc1OC1CCC(n2nc3n(c2=O)[C@H](c2ccccc2)CC3)CC1 (single isomer, unassigned) [Example 636] the IC50 [3] was 100 to 1000 nM.

For CCOC(=O)c1scnc1Oc1ccc(-n2ncn(Cc3c(F)cccc3F)c2=O)cc1F [Example 93, ethyl 4-(4-(4-(2,6-difluorobenzyl)-5-oxo-4,5-dihydro-1H-1,2,4-triazol-1-yl)-2-fluorophenoxy)thiazole-5-carboxylate], the IC50 [4] was 100 to 1000 nM.

For Cc1nc(C(=O)N2C[C@@H](C)O[C@@H](C)C2)sc1Oc1ccc(-n2nc3n(c2=O)[C@H](c2ccccc2)CC3)cc1F [Example 20, (S)-2-(4-((2-((2S,6R)-2,6-dimethylmorpholine-4-carbonyl)-4-methylthiazol-5-yl)oxy)-3-fluorophenyl)-5-phenyl-2,5,6,7-tetrahydro-3H-pyrrolo[2,1-c][1,2,4]triazol-3-one], the IC50 [4] was < 100 nM.

With Cc1nc(N2CC3(CCN3)C2)sc1Oc1ccc(-n2ncn(Cc3c(F)cccc3F)c2=O)cc1 [Example 455, 4-(2,6-difluorobenzyl)-2-(4-((4-methyl-2-(1,6-diazaspiro[3.3]heptan-6-yl)thiazol-5-yl)oxy)phenyl)-2,4-dihydro-3H-1,2,4-triazol-3-one] the IC50 [1] was < 100 nM.

With Cc1nn(-c2ccc(S(=O)(=O)N3CCN(C4CCCC4)CC3)cc2)c(=O)n1Cc1ccccc1 [Example 619, 4-benzyl-2-(4-((4-cyclopentylpiperazin-1-yl)sulfonyl)phenyl)-5-methyl-2,4-dihydro-3H-1,2,4-triazol-3-one] the IC50 [2] was > 10000 nM.

In the case of Cc1nc(Br)sc1Oc1ccc(-n2ncn(Cc3c(F)cccc3C#N)c2=O)cc1F [Example 7, 2-((1-(4-((2-bromo-4-methylthiazol-5-yl)oxy)-3-fluorophenyl)-5-oxo-1,5-dihydro-4H-1,2,4-triazol-4-yl)methyl)-3-fluorobenzonitrile], the IC50 [4] is reported as < 100 nM.

Cc1nc(N2CC(C)(N)C2)sc1C(=O)c1ccc(-n2ncn(Cc3c(F)cccc3F)c2=O)cc1 [Example 507, 2-(4-(2-(3-amino-3-methylazetidin-1-yl)-4-methylthiazole-5-carbonyl)phenyl)-4-(2,6-difluorobenzyl)-2,4-dihydro-3H-1,2,4-triazol-3-one trifluoroacetate] gave an IC50 [2] of 100 to 1000 nM.

With Cc1c(Oc2ccc(-n3ncn(Cc4c(F)cccc4F)c3=O)cc2)ccnc1NC12CC(C#N)(C1)C2 [Example 247, 3-((4-(4-(4-(2,6-difluorobenzyl)-5-oxo-4,5-dihydro-1H-1,2,4-triazol-1-yl)phenoxy)-3-methylpyridin-2-yl)amino)bicyclo[1.1.1]pentane-1-carbonitrile] the IC50 [1] was < 100 nM.

For CCOC1(C)CN(c2nccc(Oc3ccc(-n4ncn(Cc5c(F)cccc5Cl)c4=O)cc3)c2F)C1 [Example 488, 4-(2-chloro-6-fluorobenzyl)-2-(4-((2-(3-ethoxy-3-methylazetidin-1-yl)-3-fluoropyridin-4-yl)oxy)phenyl)-2,4-dihydro-3H-1,2,4-triazol-3-one], the IC50 [2] was < 100 nM.

CCOC(=O)c1cc(C)n(Cc2ccc(-n3ncn(Cc4c(F)cccc4F)c3=O)cc2F)n1 [Example 198, ethyl 1-(4-(4-(2,6-difluorobenzyl)-5-oxo-4,5-dihydro-1H-1,2,4-triazol-1-yl)-2-fluorobenzyl)-5-methyl-1H-pyrazole-3-carboxylate] was tested, and the IC50 [2] was 100 to 1000 nM.

For O=c1n(Cc2c(F)cccc2F)cnn1-c1ccc(Oc2ccnc(NCC3CCCO3)c2)cc1 (stereo not shown) [Example 484, 4-(2,6-difluorobenzyl)-2-(4-((2-(((tetrahydrofuran-2-yl)methyl)amino)pyridin-4-yl)oxy)phenyl)-2,4-dihydro-3H-1,2,4-triazol-3-one], the IC50 [2] was 100 to 1000 nM.

With CCOC1(C)CN(c2nccc(Oc3ccc(-n4ncn(Cc5c(F)cccc5F)c4=O)cc3)c2F)C1 [Example 490, 4-(2,6-difluorobenzyl)-2-(4-((2-(3-ethoxy-3-methylazetidin-1-yl)-3-fluoropyridin-4-yl)oxy)phenyl)-2,4-dihydro-3H-1,2,4-triazol-3-one] the IC50 [2] was < 100 nM.

With O=c1n(Cc2c(F)cccc2F)cnn1-c1ccc(Oc2ccnc(NCC3CCO3)c2)cc1 (stereo not shown) [Example 279, 4-(2,6-difluorobenzyl)-2-(4-((2-((oxetan-2-ylmethyl)amino)pyridin-4-yl)oxy)phenyl)-2,4-dihydro-3H-1,2,4-triazol-3-one] the IC50 [1] was 100 to 1000 nM.

With Cc1nc(C(N)=O)sc1Oc1ccc(-n2nc3n(c2=O)C(c2ccc(F)cc2)CC3)cc1F (stereo not shown) [Example 667, 5-(2-fluoro-4-(5-(4-fluorophenyl)-3-oxo-6,7-dihydro-3H-pyrrolo[1,2-c][1,2,4]triazol-2(5H)-yl)phenoxy)-4-methylthiazole-2-carboxamide] the IC50 [3] was < 100 nM.

NC(=O)c1coc(Oc2ccc(-n3nc4n(c3=O)[C@H](c3ccccc3)CC4)cc2F)n1 (single isomer, unassigned) [Example 688] was tested, and the IC50 [4] was 100 to 1000 nM.

In the case of Cc1nc(C(C)(C)O)cn1Cc1ccc(-n2nc3n(c2=O)C(c2ccccc2)CC3)cc1F (stereo not shown) [Example 136, 2-(3-fluoro-4-((4-(2-hydroxypropan-2-yl)-2-methyl-1H-imidazol-1-yl)methyl)phenyl)-5-phenyl-2,5,6,7-tetrahydro-3H-pyrrolo[2,1-c][1,2,4]triazol-3-one], the IC50 [2] is reported as 1000 to 10000 nM.

In the case of Cc1nc(C(=O)NC2COC2)sc1Oc1ccc(-n2ncn(Cc3ccccc3F)c2=O)cc1F [Example 603, 5-(2-fluoro-4-(4-(2-fluorobenzyl)-5-oxo-4,5-dihydro-1H-1,2,4-triazol-1-yl)phenoxy)-4-methyl-N-(oxetan-3-yl)thiazole-2-carboxamide], the IC50 [2] is reported as < 100 nM.

For Cc1nc(C(N)=O)sc1Oc1ccc(-n2ncn(Cc3ncccc3F)c2=O)cc1F [Example 606, 5-(2-fluoro-4-(4-((3-fluoropyridin-2-yl)methyl)-5-oxo-4,5-dihydro-1H-1,2,4-triazol-1-yl)phenoxy)-4-methylthiazole-2-carboxamide], the IC50 [2] was < 100 nM.

For Cc1nc(C=O)sc1Oc1ccc(-n2ncn(Cc3c(F)cccc3F)c2=O)cc1F [Example 634, 5-[4-[4-[(2,6-difluorophenyl)methyl]-5-oxo-1,2,4-triazol-1-yl]-2-fluoro-phenoxy]-4-methyl-thiazole-2-carbaldehyde], the IC50 [3] was < 100 nM.

For Cc1nc(C(N)=O)sc1Oc1ccc(-n2ncn(Cc3ncccc3Cl)c2=O)cc1F [Example 590, 5-(4-(4-((3-chloropyridin-2-yl)methyl)-5-oxo-4,5-dihydro-1H-1,2,4-triazol-1-yl)-2-fluorophenoxy)-4-methylthiazole-2-carboxamide], the IC50 [2] was < 100 nM.

Work on N#CC1CN(c2cc(Oc3ccc(-n4ncn(Cc5c(F)cccc5F)c4=O)cc3)ccn2)C1 [Example 338, 1-(4-(4-(4-(2,6-difluorobenzyl)-5-oxo-4,5-dihydro-1H-1,2,4-triazol-1-yl)phenoxy)pyridin-2-yl)azetidine-3-carbonitrile] yielded an IC50 [1] of 100 to 1000 nM.

In the case of O=c1n(-c2ccc(Oc3ccccc3)cc2)nc2n1C(c1ccccc1)CC2 (stereo not shown) [Example 428, 2-(4-phenoxyphenyl)-5-phenyl-2,5,6,7-tetrahydro-3H-pyrrolo[2,1-c][1,2,4]triazol-3-one], the IC50 [1] is reported as < 100 nM.

With Cc1nc(C(=O)NCCN)sc1Oc1ccc(-n2ncn(Cc3ccccc3F)c2=O)cc1F [Example 27, N-(2-aminoethyl)-5-(2-fluoro-4-(4-(2-fluorobenzyl)-5-oxo-4,5-dihydro-1H-1,2,4-triazol-1-yl)phenoxy)-4-methylthiazole-2-carboxamide] the IC50 [4] was < 100 nM.
